Measurements published in patent publication US20260042769A1, “TRIARYL AGONISTS OF ALPHA-2 ADRENERGIC RECEPTORS” (ALCEPTOR THERAPEUTICS, INC., priority 2023, published 2026).

Target: T1, human ADRA2B receptor (Homo sapiens, UniProt P18089)
T1 construct: expressed in transfected cells
T1 sequence (P18089 1-450): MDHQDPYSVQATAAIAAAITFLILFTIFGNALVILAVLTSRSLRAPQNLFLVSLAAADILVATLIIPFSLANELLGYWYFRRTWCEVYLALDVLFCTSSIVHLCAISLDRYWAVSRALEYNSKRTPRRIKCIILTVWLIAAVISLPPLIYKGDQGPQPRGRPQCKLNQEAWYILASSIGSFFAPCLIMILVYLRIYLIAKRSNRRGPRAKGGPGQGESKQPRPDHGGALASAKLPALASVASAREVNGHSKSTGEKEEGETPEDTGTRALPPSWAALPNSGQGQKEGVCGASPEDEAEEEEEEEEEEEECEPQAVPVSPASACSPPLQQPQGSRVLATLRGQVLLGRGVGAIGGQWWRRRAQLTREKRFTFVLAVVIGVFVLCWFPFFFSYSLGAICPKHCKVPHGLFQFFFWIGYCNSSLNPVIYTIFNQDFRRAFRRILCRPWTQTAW
Assay: ADRA2B arrestin agonist assay
Format: cell-based
Settings: CHO-K1 cells stably expressing human ADRA2B; read-out: Beta-Arrestin - Human Alpha2B EC50
Summary of the method: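 CHO-K1 cells stably expressing human ADRA2B, thawed from frozen stock and plated overnight, were treated with agonist for 2 h at 37 °C. Arrestin recruitment detected by luminescence after 2 h with detection reagents at room temperature.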

## Cc1cccc([C@H](Cc2cnco2)c2c[nH]cn2)c1C [Compound 364, 5-[(S)-2-(4-imidazolyl)-2-(2,3-xylyl)ethyl]-1,3-oxazole]
  EC50: < 10 nM

## Cc1cccc([C@H](Cc2cocn2)c2c[nH]cn2)c1C [Compound 366, 4-[(S)-2-(4-imidazolyl)-2-(2,3-xylyl)ethyl]-1,3-oxazole]
  EC50: < 10 nM

## Cc1cccc([C@@H](Cc2cocn2)c2c[nH]cn2)c1C [Compound 367, 4-[(R)-2-(4-imidazolyl)-2-(2,3-xylyl)ethyl]-1,3-oxazole]
  EC50: > 500 nM

## Cc1cccc(C(Cc2cocn2)c2c[nH]cn2)c1F (stereo not drawn) [Compound 368, 4-[2-(2-fluoro-3-tolyl)-2-(4-imidazolyl)ethyl]-1,3-oxazole]
  EC50: 50 to 500 nM

## Cc1cccc([C@@H](Cc2cnco2)c2c[nH]cn2)c1F [Compound 369, 5-[(R)-2-(2-fluoro-3-tolyl)-2-(4-imidazolyl)ethyl]-1,3-oxazole]
  EC50: > 500 nM

## Cc1cccc([C@H](Cc2cnco2)c2c[nH]cn2)c1F [Compound 370, 5-[(S)-2-(2-fluoro-3-tolyl)-2-(4-imidazolyl)ethyl]-1,3-oxazole]
  EC50: 10 to 50 nM

## c1cc2c(c([C@@H](Cc3cocn3)c3c[nH]cn3)c1)OCC2 [Compound 371, 4-[(R)-2-(2,3-dihydro-1-benzofuran-7-yl)-2-(4-imidazolyl)ethyl] 1,3-oxazole]
  EC50: 50 to 500 nM

## c1cc2c(c([C@H](Cc3cocn3)c3c[nH]cn3)c1)OCC2 [Compound 372, 4-[(S)-2-(2,3-dihydro-1-benzofuran-7-yl)-2-(4-imidazolyl)ethyl] 1,3-oxazole]
  EC50: 50 to 500 nM

## Cc1nc(C[C@@H](c2c[nH]cn2)c2cccc(C)c2C)co1 [Compound 373, 4-[(R)-2-(4-imidazolyl)-2-(2,3-xylyl)ethyl]-2-methyl-1,3-oxazole]
  EC50: 10 to 50 nM

## Cc1nc(C[C@H](c2c[nH]cn2)c2cccc(C)c2C)co1 [Compound 374, 4-[(S)-2-(4-imidazolyl)-2-(2,3-xylyl)ethyl]-2-methyl-1,3-oxazole]
  EC50: > 500 nM

## COc1c(C)cccc1C(Cc1cnco1)c1c[nH]cn1 (stereo not drawn) [Compound 375, 5-[2-(4-imidazolyl)-2-(2-methoxy-3-tolyl)ethyl]-1,3-oxazole]
  EC50: 50 to 500 nM

## Cc1cccc(C(Cc2cocn2)c2c[nH]cn2)c1Cl (stereo not drawn) [Compound 376, 4-[2-(2-chloro-3-tolyl)-2-(4-imidazolyl)ethyl]-1,3-oxazole]
  EC50: 10 to 50 nM

## Cn1ccc2cccc(C(Cc3cocn3)c3c[nH]cn3)c21 (stereo not drawn) [Compound 377, 4-[2-(4-imidazolyl)-2-(1-methyl-7-indolyl)ethyl]-1,3-oxazole]
  EC50: 50 to 500 nM

## Cn1ncc2c(C(Cc3cocn3)c3c[nH]cn3)cccc21 (stereo not drawn) [Compound 378, 4-[1-(4-imidazolyl)-2-(1,3-oxazol-4-yl)ethyl]-1-methyl-1H-indazole]
  EC50: 50 to 500 nM

## Cc1nc(C[C@@H](c2c[nH]cn2)c2cccc(C)c2C)c(C)o1 [Compound 379, 4-[(R)-2-(4-imidazolyl)-2-(2,3-xylyl)ethyl]-2,5-dimethyl-1,3-oxazole]
  EC50: < 10 nM

## Cc1nc(C[C@H](c2c[nH]cn2)c2cccc(C)c2C)c(C)o1 [Compound 380, 4-[(S)-2-(4-imidazolyl)-2-(2,3-xylyl)ethyl]-2,5-dimethyl-1,3-oxazole]
  EC50: > 500 nM

## COc1c(C)cccc1[C@@H](Cc1ccnn1C)c1c[nH]cn1 [Compound 381, 5-[(R)-2-(4-imidazolyl)-2-(2-methoxy-3-tolyl)ethyl]-1-methylpyrazole]
  EC50: > 500 nM

## COc1c(C)cccc1[C@H](Cc1ccnn1C)c1c[nH]cn1 [Compound 382, 5-[(S)-2-(4-imidazolyl)-2-(2-methoxy-3-tolyl)ethyl]-1-methylpyrazole]
  EC50: 10 to 50 nM

## c1cc2c(c([C@@H](Cc3cocn3)c3c[nH]cn3)c1)OCCO2 [Compound 383, 4-[(R)-2-(2,3-dihydro-1,4-benzodioxin-5-yl)-2-(4-imidazolyl)ethyl] 1,3-oxazole]
  EC50: > 500 nM

## c1cc2c(c([C@H](Cc3cocn3)c3c[nH]cn3)c1)OCCO2 [Compound 384, 4-[(S)-2-(2,3-dihydro-1,4-benzodioxin-5-yl)-2-(4-imidazolyl)ethyl]-1,3-oxazole]
  EC50: 10 to 50 nM

## Cc1cnc(CC(c2c[nH]cn2)c2cccc(C)c2C)s1 (stereo not drawn) [Compound 385, 2-[2-(4-imidazolyl)-2-(2,3-xylyl)ethyl]-5-methyl-1,3-thiazole]
  EC50: < 10 nM

## Cc1cccc(C(Cc2c(C)ccnc2C)c2c[nH]cn2)c1C (stereo not drawn) [Compound 386, 4-[2-(2,4-dimethyl-3-pyridyl)-1-(2,3-xylyl)ethyl]imidazole]
  EC50: > 500 nM

## CN1CCc2cccc(C(Cc3cn(C)nn3)c3c[nH]cn3)c21 (stereo not drawn) [Compound 387, 4-[2-(4-imidazolyl)-2-(1-methyl-7-indolinyl)ethyl]-1-methyl-1H-1,2,3-triazole]
  EC50: 50 to 500 nM

## COc1c(C)cccc1C(Cc1cocn1)c1c[nH]cn1 (stereo not drawn) [Compound 388, 4-[2-(4-imidazolyl)-2-(2-methoxy-3-tolyl)ethyl]-1,3-oxazole-formic acid (1/1)]
  EC50: > 500 nM

## COc1c(C)cccc1C(Cc1cccc(C)n1)c1c[nH]cn1 (stereo not drawn) [Compound 389, 4-[1-(2-methoxy-3-tolyl)-2-(6-methyl-2-pyridyl)ethyl]imida-zole-formic acid (1/1)]
  EC50: 50 to 500 nM

## c1cc2c(c(C(Cc3cnco3)c3c[nH]cn3)c1)OCC2 (stereo not drawn) [Compound 390, 5-[2-(2,3-dihydro-1-benzofuran-7-yl)-2-(4-imidazolyl)ethyl] 1,3-oxazole]
  EC50: 10 to 50 nM

## Cc1cccc(C(Cc2cnsc2)c2c[nH]cn2)c1C (stereo not drawn) [Compound 391, 4-[2-(4-imidazolyl)-2-(2,3-xylyl)ethyl]isothiazole]
  EC50: < 10 nM

## Fc1c(Cl)cccc1C(Cc1cnco1)c1c[nH]cn1 (stereo not drawn) [Compound 392, 5-[2-(3-chloro-2-fluorophenyl)-2-(4-imidazolyl)ethyl]-1,3-oxazole]
  EC50: 10 to 50 nM

## COc1cc(Cl)cc(CC(c2c[nH]cn2)c2cccc3c2OCC3)n1 (stereo not drawn) [Compound 393, 4-[2-(4-chloro-6-methoxy-2-pyridyl)-1-(2,3-dihydro-1-benzofuran-7-yl)ethyl]imidazole]
  EC50: 10 to 50 nM

## Cc1cccc(C(Cc2ccncc2F)c2c[nH]cn2)c1C (stereo not drawn) [Compound 394, 4-[2-(3-fluoro-4-pyridyl)-1-(2,3-xylyl)ethyl]imidazole]
  EC50: < 10 nM

## Cc1cc(CC(c2c[nH]cn2)c2cccc(C)c2C)c(Cl)cn1 (stereo not drawn) [Compound 395, 4-[2-(5-chloro-2-methyl-4-pyridyl)-1-(2,3-xylyl)ethyl]imidazole]
  EC50: < 10 nM

## Cc1cccc(C(Cc2ccncc2Cl)c2c[nH]cn2)c1C (stereo not drawn) [Compound 396, 4-[2-(3-chloro-4-pyridyl)-1-(2,3-xylyl)ethyl]imidazole]
  EC50: < 10 nM

## CCc1cccc(C(Cc2ccn3ccnc3c2)c2c[nH]cn2)c1O (stereo not drawn) [Compound 397, 2-[2-(1,3a-diaza-6-indenyl)-1-(4-imidazolyl)ethyl]-6-ethylphenol]
  EC50: > 500 nM

## c1cc2c(c(C(Cc3ccn4ccnc4c3)c3c[nH]cn3)c1)OCC2 (stereo not drawn) [Compound 398, 4-[2-(1,3a-diaza-6-indenyl)-1-(2,3-dihydro-1-benzofuran-7-yl)ethyl]imidazole]
  EC50: < 10 nM

## Cc1cccc(C(Cc2ccnn2C)c2c[nH]cn2)c1Cl (stereo not drawn) [Compound 399, 5-[2-(2-chloro-3-tolyl)-2-(4-imidazolyl)ethyl]-1-methylpyrazole]
  EC50: < 10 nM

## c1cc2c(c(C(Cc3cccn4ccnc34)c3c[nH]cn3)c1)OCC2 (stereo not drawn) [Compound 400, 4-[2-(1,3a-diaza-7-indenyl)-1-(2,3-dihydro-1-benzofuran-7-yl)ethyl]imidazole]
  EC50: > 500 nM

## Cc1cccc(C(Cc2ccc3nccn3c2)c2c[nH]cn2)c1C (stereo not drawn) [Compound 401, 4-[2-(1,3a-diaza-5-indenyl)-1-(2,3-xylyl)ethyl]imidazole]
  EC50: < 10 nM

## Cc1cccc(C(Cc2cccn3ccnc23)c2c[nH]cn2)c1C (stereo not drawn) [Compound 402, 4-[2-(1,3a-diaza-7-indenyl)-1-(2,3-xylyl)ethyl]imidazole]
  EC50: 10 to 50 nM

## Cc1cccc(C(Cc2ccn3ccnc3c2)c2c[nH]cn2)c1C (stereo not drawn) [Compound 403, 4-[2-(1,3a-diaza-6-indenyl)-1-(2,3-xylyl)ethyl]imidazole]
  EC50: 10 to 50 nM

## Cc1cccc(C(Cc2cn(C3CC3)nn2)c2c[nH]cn2)c1C (stereo not drawn) [Compound 404, 1-cyclopropyl-4-[2-(4-imi-dazolyl)-2-(2,3-xylyl)ethyl]-1H-1,2,3-triazole]
  EC50: < 10 nM

## Cc1cccc(C(Cc2ccnc(C3CCO3)n2)c2c[nH]cn2)c1C (stereo not drawn) [Compound 405, 4-[2-(2,3-dimethylphenyl)-2-(1H-imidazol-4-yl)ethyl]-2-(oxetan-2-yl)pyrimidine]
  EC50: < 10 nM

## Cc1cccc(C(Cn2cccn2)c2c[nH]cn2)c1C (stereo not drawn) [Compound 406, 1-[2-(4-imi-dazolyl)-2-(2,3-xylyl)ethyl]pyra-zole]
  EC50: 10 to 50 nM
